Holding throughout (format): in vivo, C57BL/6J mice
For assay [1], the system named is lens. In words: Pharmacological Test 1: lens elasticity after instillation of EV06. To be noted: all of the 0.5%, 1.5% and 5% groups compared with vehicle control group. The method, then: The effect of lipoic acid choline ester (EV06) on the lens elasticity was examined. The tests were conducted with reference to the methods described in InvestOphthalmol Vis Sci, 57, 2851-2863, 2016. EV06 is a compound represented by the following formula (2): A vehicle comprising 0.1% (w/v) of ethyl pyruvate, 0.269% (w/v) of sodium dihydrogenphosphate monohydrate (NaH2PO4H2O), 0.433% (w/v) of disodium hydrogenphosphate ([…]), 0.2% (w/v) of hydroxypropyl methylcellulose, and 0.5% (w/v) of NaCl was prepared. EV06 was sonicated with the addition of the vehicle to prepare a 5% (w/v) suspension. The resulting 5% (w/v) suspension was diluted with the vehicle to prepare a 1.5% (w/v) solution. Further, the resulting 1.5% (w/v) solution was diluted with the vehicle to prepare a 0.5% (w/v) solution. The total amount of each sample to be used in one day was prepared before use. […] 4) The lens was placed on a glass slide, and an all-in-one fluorescence microscope BZ-9000 (Keyence) was used to capture an image of the lens (Image a). […] 6) A change in the lens diameter was calculated from Equation 1 wherein the lens diameter of Image a is subtracted from the lens diameter of Image b, as described below. Then, the lens elasticity improvement of each sample group compared with the vehicle control group was calculated from Equation 2 described below. […]

The test system of assay [2] is lens. Kind of assay: Pharmacological Test 2: lens elasticity after instillation of sodium ursodeoxycholate. The conditions noted are these: 1.5% (w/v) sample, 2.5 μL/eye, 3 times per day, 12 to 15 days, vs vehicle control. The method, then:
A vehicle comprising 0.1% (w/v) of ethyl pyruvate, 0.269% (w/v) of sodium dihydrogenphosphate monohydrate (NaH2PO4H2O), 0.433% (w/v) of disodium hydrogenphosphate (Na2HPO4), 0.2% (w/v) of hydroxypropyl methylcellulose, 0.5% (w/v) of NaCl was prepared. Sodium ursodeoxycholate was sonicated with the addition of the vehicle to prepare a 1.5% (w/v) suspension. The resulting 1.5% (w/v) suspension was diluted with the vehicle to prepare a 0.5% (w/v) suspension. Further, the resulting 0.5% (w/v) suspension was diluted with the vehicle to prepare a 0.15% (w/v) suspension. The total amount of each sample to be used in one day was prepared before use. EV06 was sonicated with the addition of the vehicle to prepare a 1.5% (w/v) solution. The total amount of the sample to be used in one day was prepared before use. 1) Each test sample (2.5 μL/eye) was instilled into the right eye of 8-month-old C57BL/6J mice with a Pipetman 3 times per day (around 9:00, 13:00 and 17:00) for 12 to 15 days. 2) After the final instillation, the mice were euthanized by carbon dioxide inhalation, and then the eyeballs were extracted and rinsed with Hank's balanced salt solution (HBSS)). 3) The sclera near the optic nerve was cut with a razor, the lens was removed through the incision, and the removed lens was immersed in HBSS. 4) The lens was placed on a glass slide, and an all-in-one fluorescence microscope BZ-9000 (Keyence) was used to capture an image of the lens (Image a). 5) Next, one cover glass (Corning^(registered trade mark) 22×22 mm Square) was placed on the lens, and an image in which the thickness of the lens changed due to the weight was similarly captured (Image b). 6) A change in the lens diameter was calculated from Equation 1 wherein the lens diameter of Image a is subtracted from the lens diameter of Image b, as described below. Then, the lens elasticity improvement of each sample group compared with the vehicle control group was calculated from Equation 2 described below. The mean of the vehicle control group was based on 5 eyes, the mean of each sodium ursodeoxycholate sample group was based on 10 eyes, and the mean of the EV06 sample group was based on 10 eyes. Change in lens diameter Lens diameter in image b of each test sample−Lens diameter in Image a of each test sample (Equation 1) Lens elasticity improvement of each sample group=Mean change in lens diameter of each Test sample group−Mean change in lens diameter of Vehicle control group (Equation 2)

Assay [3] concerns lens. In words: Pharmacological Test 5: lens elasticity, 1% ursodeoxycholic acid once-daily for 1, 3, 7, 10 or 14 days. The conditions noted are these: for Lens elasticity improvement: 1% sample, QD, 24 h after final instillation, vs untreated group. The method, then:
A vehicle comprising 0.1% (w/v) of ethyl pyruvate, 0.269% (w/v) of sodium dihydrogenphosphate monohydrate (NaH2PO4H2O), 0.433% (w/v) of disodium hydrogenphosphate (Na2HPO4), 0.2% (w/v) of hydroxypropyl methylcellulose, 0.5% (w/v) of NaCl was prepared. Ursodeoxycholic acid was sonicated with the addition of the vehicle to prepare a 1.0% (w/v) suspension. The total amount of the sample to be used in one day was prepared before use. 1) The test sample (2.5 μL/eye) was instilled into both eyes of 8-month-old C57BL/6J mice with a Pipetman once per day (QD; around 13:30) for 1, 3, 7, 10, or 14 days. 2) Twenty-four hours after the final instillation, the mice were euthanized by carbon dioxide inhalation, and then the eyeballs were extracted and rinsed with Hank's balanced salt solution (HBSS). 3) The sclera near the optic nerve was cut with a razor, the lens was removed through the incision, and the removed lens was immersed in HBSS. 4) The lens was placed on a glass slide, and an all-in-one fluorescence microscope BZ-9000 (Keyence) was used to capture an image of the lens (image a). 5) Next, one cover glass (Corning^(registered trade mark) 22×22 mm Square) was placed on the lens, and an image in which the thickness of the lens changed due to the weight was similarly captured (Image b). 6) A change in the lens diameter was calculated from Equation 1 wherein the lens diameter of Image a is subtracted from the lens diameter of Image b, as described below. Then, the lens elasticity improvement of each sample group compared with the […] was calculated from Equation 2 described below. Each mean of the untreated group and each ursodeoxycholic acid sample group was based on 9 or 10 eyes. Change in lens diameter=Lens diameter in Image b of each test sample−Lens diameter in Image a of each test sample (Equation 1) Lens elasticity improvement of each sample group=Mean change in lens diameter of each Test sample group−Mean change in lens diameter of Untreated group (Equation 2)

Each structure is given as a SMILES string.

With `C[N+](C)(C)CCOC(=O)CCCC[C@@H]1CCSS1` [EV06, lipoic acid choline ester], the “Lens diameter / elasticity improving effect, in words” value in the assay with lens [1] was “increased lens diameter”. Further, in the assay with lens [2], the Lens elasticity improvement is 38.2 μm.

As to `C[C@H](CCC(=O)O)[C@H]1CC[C@H]2[C@@H]3[C@@H](O)C[C@@H]4C[C@H](O)CC[C@]4(C)[C@H]3CC[C@]12C` [ursodeoxycholic acid, 3α,7β-Dihydroxy-5β-cholan-24-oic acid], the “Lens elasticity improvement, in words” value in the assay with lens [3] (1% sample instilled once-daily, by duration of instillation) is recorded as “showed definitely an improvement in lens elasticity after instillation for 3 days”. Also, the Lens elasticity improvement was 9.6 μm in the assay with lens [3] (1 day); 21.1 μm in the assay with lens [3] (3 days); 27.4 μm with lens [3] (7 days); 38.1 μm in the assay with lens [3] (10 days); 34.2 μm in the assay on lens [3] (14 days).
